Assay results reported in patent US9795140B2, “Molecules having pesticidal utility, and intermediates, compositions, and processes, related thereto” (priority 2015, dated 2017).

Key:
Format in all cases: in vivo
[1] = test system: Green Peach Aphid (Myzus persicae, MYZUPE); experiment: Bioassay on Green Peach Aphid (GPA), foliar spray on cabbage seedlings; conditions: 72 h, 200 ppm spray on infested cabbage seedlings, three days, Abbott corrected % control, read-out: GPA % Control (or Mortality) rating
Experimental: Certain molecules disclosed in this document were tested against GPA using procedures described in the following example. In the reporting of the results, the “GPA & YFM Rating Table” was used (See Table Section).
Cabbage seedlings grown in 3-inch pots, with 2-3 small (3-5 cm) true leaves, were used as test substrate. The seedlings were infested with 20-50 GPA (wingless adult and nymph stages) one day prior to chemical application. Four pots with individual seedlings were used for each treatment. Test molecules (2 mg) were dissolved in 2 mL of acetone/methanol (1:1) solvent, forming stock solutions of 1000 ppm test molecule. The stock solutions were diluted 5× with 0.025% Tween 20 in water to obtain the solution at 200 ppm test molecule. A hand-held aspirator-type sprayer was used for spraying a solution to both sides of […] leaves until runoff. Reference plants (solvent check) were sprayed with the diluent only containing 20% by volume of acetone/methanol (1:1) solvent. Treated plants were held in a holding room for three days at approximately 25° C. and ambient relative humidity (RH) prior to grading. Evaluation was conducted by counting the number of live aphids per plant under a microscope. Percent control was measured using Abbott's correction formula (W. S. Abbott, “A Method of Computing the Effectiveness of an Insecticide” J. Econ. Entomol. 18 (1925), pp. 265-267) as follows. Corrected % Control=100*(X−Y)/X where X=No. of live aphids on solvent check plants and Y=No. of live aphids on treated plants. The results are indicated in the table entitled “Table ABC: Biological Results” (See Table Section).

[2] = test system: Beet Armyworm (Spodoptera exigua, LAPHEG); experiment: Bioassay on Beet Armyworm (BAW), 128-well diet tray assay; conditions: 168 h, 50 μg/cm^2 on artificial diet, second instar larvae, 25° C., five to seven days, average of eight wells, read-out: BAW % Control (or Mortality) rating
How it was run: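 Percent mortality, averaged across eight replicate wells, was scored after five to seven days at 25° C. under a 14:10 light-dark cycle. Each well's diet carried 50 μg/cm^2 of the dried test molecule and held one to five second instar larvae.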

[3] = test system: Cabbage Looper (Trichoplusia ni, TRIPNI); experiment: Bioassay on Cabbage Looper (CL), 128-well diet tray assay; conditions: 168 h, 50 μg/cm^2 on artificial diet, second instar larvae, 25° C., five to seven days, average of eight wells, read-out: CL % Control (or Mortality) rating
How it was run: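 Second-instar T. ni larvae (one to five per well) were placed on artificial diet treated with 50 μg/cm^2 compound, applied in 90:10 acetone-water and dried. Trays were held five to seven days at 25 °C under 14:10 light-dark. Percent mortality per well was averaged over eight wells.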

[4] = test system: Yellow Fever Mosquito (Aedes aegypti, AEDSAE); experiment: Bioassay on Yellow Fever Mosquito (YFM) larvae, 96-well plate; conditions: about 1 day-old larvae, room temperature, 3 days, scored on mortality
How it was run: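 Compound stocks at 4000 ppm in DMSO were diluted with 90:10 water/acetone, and 15 μL aliquots were dispensed into six replicate plates. About 1-day-old larvae in liver-powder water were added per well. Plates were covered and held at room temperature for 3 days before each well was scored for mortality.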

Work on O=C(NCC(F)(F)F)c1cc(NC(=O)[C@H]2[C@H](c3cc(Cl)cc(Cl)c3)C2(Cl)Cl)ccc1Cl (relative stereo) [F4, trans-2-Chloro-5-(2,2-dichloro-3-(3,5-dichlorophenyl)cyclopropane-1-carboxamido)-N-(2,2,2-trifluoroethyl)benzamide] yielded a mortality at 200 ppm [1] of 80 to 100%, a mortality at 50 µg/cm2 [2] of 50 to 100% and a mortality at 50 µg/cm2 [3] of 50 to 100%. For the same molecule, the “YFM % Control (or Mortality) rating” value [4] was “A (80-100)”.

Molecule O=C(NOCC1CC1)c1cc(NC(=O)C2C(c3cc(Cl)cc(Cl)c3)C2(Cl)Cl)ccc1Cl (stereo not drawn) [F16, trans-N-2-Chloro-N-(cyclopropylmethoxy)-5-(2,2-dichloro-3-(3,5-dichlorophenyl)cyclopropane-1-carboxamido)benzamide] has a mortality at 200 ppm [1] of 0 to 80%, a mortality at 50 µg/cm2 [2] of 50 to 100% and a mortality at 50 µg/cm2 [3] of 50 to 100%. For the same molecule, the “YFM % Control (or Mortality) rating” value [4] was “A (80-100)”.

Work on O=C(NOc1ccccc1)c1cc(NC(=O)[C@H]2[C@H](c3cc(Cl)cc(Cl)c3)C2(Cl)Cl)ccc1Cl (relative stereo) [F29, trans-2-chloro-5-(2,2-dichloro-3-(3,5-dichlorophenyl)cyclopropane-1-carboxamido)-N-phenoxybenzamide] yielded a mortality at 200 ppm [1] of 0 to 80%, a mortality at 50 µg/cm2 [2] of 0% and a mortality at 50 µg/cm2 [3] of 0%. For the same molecule, the “YFM % Control (or Mortality) rating” value [4] was “A (80-100)”.

In the case of O=C(NCCc1ccc(F)cc1)c1cc(NC(=O)C2C(c3cc(Cl)cc(Cl)c3)C2(Cl)Cl)ccc1Cl (stereo not drawn) [F19, trans-N-2-Chloro-5-(2,2-dichloro-3-(3,5-dichlorophenyl)cyclopropane-1-carboxamido)-N-(4-fluorophenethyl)benzamide], the mortality at 200 ppm [1] is reported as 0 to 80%, the mortality at 50 µg/cm2 [2] is reported as 50 to 100% and the mortality at 50 µg/cm2 [3] is reported as 50 to 100%. For the same molecule, the “YFM % Control (or Mortality) rating” value [4] was “A (80-100)”.

With CCCCCCNC(=O)c1cc(NC(=O)[C@H]2[C@H](c3cc(Cl)cc(Cl)c3)C2(Cl)Cl)ccc1Cl (relative stereo) [F31, trans-2-Chloro-5-(2,2-dichloro-3-(3,5-dichlorophenyl)cyclopropane-1-carboxamido)-N-hexylbenzamide] the mortality at 200 ppm [1] was 0 to 80%, the mortality at 50 µg/cm2 [2] was 50 to 100% and the mortality at 50 µg/cm2 [3] was 50 to 100%. For the same molecule, the “YFM % Control (or Mortality) rating” value [4] was “B (More than 0-Less than 80)”.

With O=C(NCCCOCC(F)(F)F)c1cc(NC(=O)[C@H]2[C@H](c3cc(Cl)cc(Cl)c3)C2(Cl)Cl)ccc1Cl (relative stereo) [F39, trans-2-Chloro-5-(2,2-dichloro-3-(3,5-dichlorophenyl)cyclopropane-1-carboxamido)-N-(3-(2,2,2-trifluoroethoxy)propyl)benzamide] the mortality at 200 ppm [1] was 80 to 100%, the mortality at 50 µg/cm2 [2] was 50 to 100% and the mortality at 50 µg/cm2 [3] was 50 to 100%. The “YFM % Control (or Mortality) rating” value [4] was “A (80-100)”.

Molecule O=C(NCC(O)C(F)(F)F)c1cc(NC(=O)[C@H]2[C@H](c3cc(Cl)cc(Cl)c3)C2(Cl)Cl)ccc1Cl (relative stereo) [PF16, trans-2-Chloro-5-(2,2-dichloro-3-(3,5-dichlorophenyl)cyclopropane-1-carboxamido)-N-(3,3,3-trifluoro-2-hydroxypropyl)benzamide] has a mortality at 200 ppm [1] of 80 to 100%, a mortality at 50 µg/cm2 [2] of 50 to 100% and a mortality at 50 µg/cm2 [3] of 50 to 100%. The “YFM % Control (or Mortality) rating” value [4] was “A (80-100)”.

With C[C@H](CSCC(F)(F)F)NC(=O)c1cc(NC(=O)C2C(c3cc(Cl)cc(Cl)c3)C2(Cl)Cl)ccc1Cl (stereo in doubt) [PF3, trans-2-Chloro-5-(2,2-dichloro-3-(3,5-dichlorophenyl)cyclopropane-1-carboxamido)-N—((R)-1-((2,2,2-trifluoroethyl)thio)propan-2-yl)benzamide] the mortality at 200 ppm [1] was 80 to 100%, the mortality at 50 µg/cm2 [2] was 50 to 100% and the mortality at 50 µg/cm2 [3] was 50 to 100%. The “YFM % Control (or Mortality) rating” value [4] was “B (More than 0-Less than 80)”.

O=C(NCc1ccc(C(F)(F)F)cc1)c1cc(NC(=O)[C@H]2[C@H](c3cc(Cl)cc(Cl)c3)C2(Cl)Cl)ccc1Cl (relative stereo) [F41, trans-2-Chloro-5-(2,2-dichloro-3-(3,5-dichlorophenyl)cyclopropane-1-carboxamido)-N-(4-(trifluoromethyl)benzyl)benzamide] was tested, and the mortality at 200 ppm [1] was 0%, the mortality at 50 µg/cm2 [2] was 50 to 100% and the mortality at 50 µg/cm2 [3] was 50 to 100%. For the same molecule, the “YFM % Control (or Mortality) rating” value [4] was “A (80-100)”.

With O=C(NOCC1CC1(F)F)c1cc(NC(=O)C2C(c3cc(Cl)c(Cl)c(Cl)c3)C2(Cl)Cl)ccc1Cl (stereo not drawn) [F23, trans-N-2-Chloro-5-(2,2-dichloro-3-(3,4,5-trichlorophenyl)cyclopropane-1-carboxamido)-N-((2,2-difluorocyclopropyl)methoxy)benzamide] the mortality at 200 ppm [1] was 80 to 100%, the mortality at 50 µg/cm2 [2] was 50 to 100% and the mortality at 50 µg/cm2 [3] was 50 to 100%. The “YFM % Control (or Mortality) rating” value [4] was “B (More than 0-Less than 80)”.

Work on COc1ccc(CNC(=O)c2cc(NC(=O)[C@H]3[C@H](c4cc(Cl)cc(Cl)c4)C3(Cl)Cl)ccc2Cl)c(OC)c1 (relative stereo) [F34, trans-2-Chloro-5-(2,2-dichloro-3-(3,5-dichlorophenyl)cyclopropane-1-carboxamido)-N-(2,4-dimethoxybenzyl)benzamide] yielded a mortality at 200 ppm [1] of 0%, a mortality at 50 µg/cm2 [2] of 50 to 100% and a mortality at 50 µg/cm2 [3] of 50 to 100%. The “YFM % Control (or Mortality) rating” value [4] was “A (80-100)”.
